# In ChEMBL document CHEMBL4831503, “Design, synthesis, in vitro and in vivo anti-respiratory syncytial virus (RSV) activity of novel oxizine fused benzimidazole derivatives” (Eur J Med Chem, 2021):
# Activity calls are given as the source filed them. The rule behind the calls is not given here.
# Experiments:
# [1] = test system: Respiratory syncytial virus; experiment: Antiviral activity against RSV infected in human HEp-2 cells assessed as decrease in virus induced NF-kappaB gene expression measured after 48 hrs by RT-PCR analysis; format: functional, organism-based
# [2] = test system: Respiratory syncytial virus; experiment: Antiviral activity against RSV Long infected in BALB/c mouse assessed as reduction in lung tissue damage by measuring lung index at 25 to 100 mg/kg/day measured after 2 days of virus infection; format: functional, organism-based; conditions: dose 25-100 mg/kg/day, time 2.0 day
# [3] = test system: Respiratory syncytial virus; experiment: Antiviral activity against RSV infected in human HEp-2 cells assessed as decrease in virus induced IL-6 gene expression measured after 48 hrs by RT-PCR analysis; format: functional, organism-based
# [4] = test system: Respiratory syncytial virus; experiment: Inhibition of RSV induced apoptosis in human HEp-2 cells assessed as reduction in cleaved caspase-7 expression measured after 48 hrs by Western blot analysis; format: functional, organism-based
# [5] = Selectivity index, ratio of CC50 for human HEp-2 cells to EC50 for Respiratory syncytial virus infected in human HEp-2 cells; format: toxicity, cell-based; conditions: read-out: Selectivity Index
# [6] = test system: Respiratory syncytial virus; experiment: Antiviral activity against RSV infected in BALB/c mouse assessed as downregulation of IL-10 expression in lung tissue infected with RSV at 25 to 100 mg/kg/day measured after 2 to 6 days post infection by RT-PCR analysis; format: functional, organism-based; conditions: dose 25-100 mg/kg/day, time 2-6 day
# [7] = test system: Respiratory syncytial virus; experiment: Inhibition of RSV induced apoptosis in human HEp-2 cells assessed as reduction in cleaved caspase-3 expression measured after 60 hrs by Western blot analysis; format: functional, organism-based
# [8] = test system: Respiratory syncytial virus; experiment: Antiviral activity against RSV infected in BALB/c mouse assessed as downregulation of IL-8 expression in lung tissue infected with RSV at 25 to 100 mg/kg/day measured after 2 to 6 days post infection by RT-PCR analysis; format: functional, organism-based; conditions: dose 25-100 mg/kg/day, time 2-6 day
# HEp-2 = experiment: Induction of apoptosis in human HEp-2 cells assessed as late apoptotic cells at 25 uM measured after 60 hrs by Annexin V-FITC/PI staining based flow cytometry analysis (reference value: 1.6%); format: functional
# [9] = test system: Respiratory syncytial virus; experiment: Antiviral activity against Respiratory syncytial virus infected in human HEp-2 cells assessed as inhibition of virus infected cells induced lesion formation at 25 uM measured after 60 hrs by microscopic analysis; format: functional, organism-based
# [10] = Inhibition of RSV induced ROS production in human HEp-2 cells assessed as reduction in accumulation of ROS-positive cells at 25 uM measured after 36 hrs by DCHF-DA staining based flow cytometry analysis (reference value: 82.2%); format: functional, Respiratory syncytial virus; design: scale not given: the % may be the effect or the level left
# [11] = Cytotoxicity against human HEp-2 cells assessed as reduction in cell viability measured after 60 hrs by MTT assay; format: cell-based
# [12] = test system: Respiratory syncytial virus; experiment: Inhibition of RSV induced apoptosis in human HEp-2 cells assessed as early apoptotic cells at 50 uM measured after 60 hrs by Annexin V-FITC/PI staining based flow cytometry analysis (reference value: 10.3%); format: functional; design: scale not given: the % may be the effect or the level left
# [13] = Inhibition of RSV induced ROS production in human HEp-2 cells assessed as reduction in accumulation of ROS-positive cells at 50 uM measured after 36 hrs by DCHF-DA staining based flow cytometry analysis (reference value: 82.2%); format: functional, Respiratory syncytial virus; design: scale not given: the % may be the effect or the level left
# [14] = test system: Respiratory syncytial virus; experiment: Antiviral activity against RSV infected in human HEp-2 cells assessed as decrease in virus induced IFN-beta gene expression measured after 48 hrs by RT-PCR analysis; format: functional, organism-based
# Human orthopneumovirus [15] = experiment: Antiviral activity against Respiratory syncytial virus A2 infected in human HEp-2 cells assessed as reduction in viral infection incubated for 60 hrs by MTT assay; format: functional, organism-based; conditions: A2, HEp-2, 60 h
# [16] = test system: Respiratory syncytial virus; experiment: Antiviral activity against RSV infected in BALB/c mouse assessed as inhibition of viral replication by measuring RSV-M gene expression in lung after 2 to 6 days post infection by RT-PCR analysis; format: functional, organism-based; conditions: time 2-6 day
# [17] = test system: Respiratory syncytial virus; experiment: Antiviral activity against RSV Long infected in BALB/c mouse assessed as inhibition of alveolar infiltrates accumulation at 25 to 100 mg/kg/day observed on day 6 after infection by H and E staining based microscopic analysis; format: functional, organism-based; conditions: dose 25-100 mg/kg/day, time 6.0 day
# [18] = test system: Respiratory syncytial virus; experiment: Antiviral activity against RSV infected in human HEp-2 cells assessed as decrease in virus induced TLR-3 gene expression measured after 48 hrs by RT-PCR analysis; format: functional, organism-based
# [19] = test system: Respiratory syncytial virus; experiment: Antiviral activity against Respiratory syncytial virus infected in human HEp-2 cells assessed as inhibition of viral replication at 25 uM treated up to 14 hpi and measured after 60 hrs by MTT assay; format: functional, organism-based
# [20] = test system: Respiratory syncytial virus; experiment: Antiviral activity against RSV infected in BALB/c mouse assessed as downregulation of IRF3 expression in lung tissue infected with RSV at 25 to 100 mg/kg/day measured after 2 to 4 days post infection by RT-PCR analysis; format: functional, organism-based; conditions: dose 25-100 mg/kg/day, time 2-4 day
# [21] = test system: Respiratory syncytial virus; experiment: Antiviral activity against RSV infected in BALB/c mouse assessed as downregulation of iNOS expression in lung tissue infected with RSV at 25 to 100 mg/kg/day measured after 2 to 6 days post infection by RT-PCR analysis; format: functional, organism-based; conditions: dose 25-100 mg/kg/day, time 2-6 day
# [22] = test system: Respiratory syncytial virus; experiment: Antiviral activity against RSV infected in BALB/c mouse assessed as downregulation of IL-6 expression in lung tissue infected with RSV at 25 to 100 mg/kg/day measured after 2 days post infection by RT-PCR analysis; format: functional, organism-based; conditions: dose 25-100 mg/kg/day, time 2.0 day
# [23] = test system: Respiratory syncytial virus; experiment: Antiviral activity against Respiratory syncytial virus Long infected in African green monkey Vero cells assessed as reduction in viral infection incubated for 60 hrs by MTT assay; format: functional, organism-based; conditions: human respiratory syncytial virus
# [24] = test system: Respiratory syncytial virus; experiment: Antiviral activity against RSV infected in human HEp-2 cells assessed as decrease in virus induced IRF3 gene expression measured after 48 hrs by RT-PCR analysis; format: functional, organism-based
# [25] = test system: Respiratory syncytial virus; experiment: Antiviral activity against RSV infected in BALB/c mouse assessed as downregulation of TLR3 expression in lung tissue infected with RSV at 25 to 100 mg/kg/day measured after 2 to 6 days post infection by RT-PCR analysis; format: functional, organism-based; conditions: dose 25-100 mg/kg/day, time 2-6 day
# [26] = test system: Respiratory syncytial virus; experiment: Antiviral activity against RSV Long infected in BALB/c mouse assessed as improvement in inflammatory infiltration of lung tissue at 25 mg/kg/day observed on day 6 after infection by H and E staining based microscopic analysis; format: functional, organism-based; conditions: time 6.0 day
# [27] = Selectivity index, ratio of CC50 for human HEp-2 cells to EC50 for Respiratory syncytial virus A2 infected in human HEp-2 cells; format: toxicity, cell-based; conditions: read-out: Selectivity Index
# [28] = test system: Respiratory syncytial virus; experiment: Antiviral activity against Respiratory syncytial virus Long infected in human HEp-2 cells assessed as reduction in viral infection up to 50 uM treated 2 hpi measured after 60 hrs by MTT assay; format: functional, organism-based; conditions: dose microM <=50, time 60.0 hrs
# [29] = test system: Respiratory syncytial virus; experiment: Antiviral activity against RSV Long infected in BALB/c mouse assessed as improvement in lung congestion at 25 to 100 mg/kg/day observed on day 6 after infection by H and E staining based microscopic analysis; format: functional, organism-based; conditions: dose 25-100 mg/kg/day, time 6.0 day
# Human orthopneumovirus [30] = experiment: Antiviral activity against Respiratory syncytial virus A2 infected in human A549 cells assessed as reduction in viral infection incubated for 60 hrs by MTT assay; format: functional, organism-based; conditions: A2, A549, 60 h
# [31] = test system: Respiratory syncytial virus; experiment: Antiviral activity against RSV infected in human HEp-2 cells assessed as downregulation of NF-kappaB expression at 25 to 50 uM treated 48 hpi and measured after 48 hrs by Western blot analysis; format: functional, organism-based; conditions: dose 25-50 µM
compound,measurement,setting,value
Cc1c(Br)cc2nc3n(c2c1Br)[C@H]1OC[C@@H](O)[C@H]1OC3,Activity,[1],Dose-Dependent Effect
same,Activity,[2],Active
same,Activity,[3],Dose-Dependent Effect
same,inhibition,[4],Active
same,selectivity ratio,[5],26.4
same,Activity,[6],Active
same,inhibition,[7],Active
same,Activity,[8],Active
same,Activity,HEp-2,2.4%
same,Activity,[9],Active
same,Activity,[10],60.7%
same,CC50 at 60 h,[11],250 µM
same,Activity,[12],3.9%
same,Activity,[13],56.3%
same,Activity,[14],Dose-Dependent Effect
same,EC50,Human orthopneumovirus [15],12.8 µM
same,Activity,[16],Dose-Dependent Effect
same,Activity,[17],Active
same,Activity,[18],Dose-Dependent Effect
same,Activity,[19],Active
same,Activity,[20],Active
same,Activity,[21],Active
same,Activity,[22],Active
same,EC50,[23],19 µM
same,Activity,[24],Dose-Dependent Effect
same,Activity,[25],Active
same,Activity,[26],Active
same,selectivity ratio,[27],19.6
same,Activity,[28],Active
same,Activity,[29],Active
same,EC50,Human orthopneumovirus [30],13.2 µM
same,Activity,[31],Active
